Measured values: paper PMC11012124, “Synthesis of Novel Triazine-Based Chalcones and 8,9-dihydro-7H-pyrimido[4,5-b][1,4]diazepines as Potential Leads in the Search of Anticancer, Antibacterial and Antifungal Agents” (International Journal of Molecular Sciences, 2024)

Experiments:
Experiment in all cases: cells
NCI-H322M = conditions: Homo sapiens, 48 h; for CC50: read-out: LC50
OVCAR-8 = conditions: Homo sapiens, OVCAR-8, 48 h; for CC50: read-out: LC50
HCC-2998 = conditions: Homo sapiens, HCC 2998, 48 h; for CC50: read-out: LC50
PC-3 = conditions: Homo sapiens, PC-3, 48 h; for CC50: read-out: LC50
SNB-19 = conditions: Homo sapiens, SNB-19, 48 h; for CC50: read-out: LC50
SR = conditions: Homo sapiens, 48 h; for CC50: read-out: LC50
IGROV1 = conditions: Homo sapiens, IGROV-1, 48 h; for CC50: read-out: LC50
SW-620 = conditions: Homo sapiens, SW-620, 48 h; for CC50: read-out: LC50
MALME-3M = conditions: Homo sapiens, 48 h; for CC50: read-out: LC50
ACHN = conditions: Homo sapiens, 48 h; for CC50: read-out: LC50
RXF 393 = conditions: Homo sapiens, RXF 393, 48 h; for CC50: read-out: LC50
HS 578T = conditions: Homo sapiens, 48 h; for CC50: read-out: LC50
SK-MEL-28 = conditions: Homo sapiens, SK-MEL-28, 48 h; for CC50: read-out: LC50
CCRF-CEM = conditions: Homo sapiens, 48 h; for CC50: read-out: LC50
CAKI-1 = conditions: Homo sapiens, CAKI-1, 48 h; for CC50: read-out: LC50
HOP-62 = conditions: Homo sapiens, HOP-62, 48 h; for CC50: read-out: LC50
K-562 = conditions: Homo sapiens, K562, 48 h; for GI50: K-562, 48 h; for CC50: read-out: LC50
UACC-62 = conditions: Homo sapiens, UACC-62, 48 h; for CC50: read-out: LC50
EKVX = conditions: Homo sapiens, 48 h; for CC50: read-out: LC50
BT-549 = conditions: Homo sapiens, BT-549, 48 h; for CC50: read-out: LC50
MDA-MB-435 = conditions: Homo sapiens, MDA-MB-435, 48 h; for CC50: read-out: LC50
OVCAR-3 = conditions: Homo sapiens, OVCAR-3, 48 h; for CC50: read-out: LC50
SF-268 = conditions: Homo sapiens, SF-268, 48 h; for CC50: read-out: LC50

## CN(C)c1nc(NCCNS(=O)(=O)c2ccc(C(=O)/C=C/c3ccc(F)cc3)cc2)nc(N2CCOCC2)n1 [23f]
NCI-H322M
  GI50: 13.2 µM
  CC50: 50.9 µM
OVCAR-8
  GI50: 14.7 µM
  CC50: 54 µM
HCC-2998
  GI50: 16 µM
  CC50: 56 µM
PC-3
  GI50: 11.2 µM
  CC50: 58.5 µM
SNB-19
  GI50: 13.4 µM
  CC50: 52.1 µM
SR
  GI50: 3.45 µM
  CC50: > 100 µM
IGROV1
  GI50: 2.27 µM
  CC50: 25.4 µM
SW-620
  GI50: 3.38 µM
  CC50: 40.8 µM
MALME-3M
  GI50: 14.6 µM
  CC50: 54.4 µM
ACHN
  GI50: 13.1 µM
  CC50: 51.4 µM
RXF 393
  GI50: 8.82 µM
  CC50: 46.5 µM
HS 578T
  GI50: 14.6 µM
  CC50: > 100 µM
SK-MEL-28
  GI50: 14.9 µM
  CC50: 53.4 µM
CCRF-CEM
  GI50: 6.58 µM
  CC50: > 100 µM
CAKI-1
  GI50: 9.5 µM
  CC50: 48.6 µM
HOP-62
  GI50: 16.1 µM
  CC50: 61.8 µM
K-562
  GI50: 3.7 µM
  CC50: > 100 µM
UACC-62
  GI50: 10.8 µM
  CC50: 49.1 µM
EKVX
  GI50: 14.4 µM
  CC50: 53.8 µM
BT-549
  GI50: 15.1 µM
  CC50: 56.7 µM
MDA-MB-435
  GI50: 11.6 µM
  CC50: 51.9 µM
OVCAR-3
  GI50: 14.6 µM
  CC50: 55.7 µM
SF-268
  GI50: 15 µM
  CC50: 94 µM

## CN(C)c1nc(NCCNS(=O)(=O)c2ccc(C(=O)/C=C/c3ccc(C(F)(F)F)cc3)cc2)nc(N2CCOCC2)n1 [23g]
NCI-H322M
  GI50: 14.2 µM
  CC50: 52.1 µM
OVCAR-8
  GI50: 14.4 µM
  CC50: 54.9 µM
HCC-2998
  GI50: 12.9 µM
  CC50: 52.5 µM
PC-3
  GI50: 10.8 µM
  CC50: 60 µM
SNB-19
  GI50: 13.5 µM
  CC50: 51.3 µM
SR
  GI50: 6.31 µM
  CC50: > 100 µM
IGROV1
  GI50: 1.77 µM
  CC50: 6.97 µM
SW-620
  GI50: 3.3 µM
  CC50: 36.5 µM
MALME-3M
  GI50: 14.4 µM
  CC50: 53 µM
ACHN
  GI50: 8.6 µM
  CC50: 45.5 µM
RXF 393
  GI50: 11.5 µM
  CC50: 49 µM
HS 578T
  GI50: 17.8 µM
  CC50: > 100 µM
SK-MEL-28
  GI50: 14.4 µM
  CC50: 52.6 µM
CCRF-CEM
  GI50: 3.2 µM
  CC50: > 100 µM
CAKI-1
  GI50: 11.4 µM
  CC50: 51.7 µM
HOP-62
  GI50: 17 µM
  CC50: 61.3 µM
K-562
  GI50: 3.21 µM
  CC50: > 100 µM
UACC-62
  GI50: 11.2 µM
  CC50: 48.5 µM
EKVX
  GI50: 14.3 µM
  CC50: 52.5 µM
BT-549
  GI50: 15.6 µM
  CC50: 54.9 µM
MDA-MB-435
  GI50: 10.3 µM
  CC50: 51.1 µM
OVCAR-3
  GI50: 16.4 µM
  CC50: 57.3 µM
SF-268
  GI50: 16.3 µM
  CC50: 87.9 µM
